Experimental data from US20240294570A1, “ENZYMATICALLY FORMING INTRANUCLEAR PEPTIDE ASSEMBLIES FOR SELECTIVELY KILLING INDUCED PLURIPOTENT STEM CELLS” (BRANDEIS UNIVERSITY, priority 2021, published 2024).
Non-standard residues stand in square brackets, D forms with d. Residues, ends and D or L forms follow the SMILES beside them. No end group written: not given here. *: point of attachment. pY = N[C@@H](Cc1ccc(OP(=O)(O)O)cc1)C(=O)O; NBD = O=[N+]([O-])c1ccc(*)c2nonc12; βAla = NCCC(=O)O

Columns and labels:
[1] = Enzymatic self-assembly in vitro, nanostructures by TEM; assay type: physicochemical; settings: for diameters of nanofibers: after dephosphorylation at 400 μM by ALP (0.5 U/mL)
Method: TEM Sample Preparation: After placing 5 μL samples on 400 mesh copper grids coated with continuous thick carbon film (˜35 nm) which is glowed discharged, we washed the grid with ddH2O and UA (uranyl acetate). The sample loaded grid was stained with the UA. The residual UA was removed by filter paper and then dried in air. TEM images were obtained with Morgagni 268 transmission electron microscope.
After obtaining all the precursors, their behaviors for EISA were evaluated in vitro using transmission electron microscopes (TEM) to examine the nanostructures formed before and after the ALP catalyzed dephosphorylation of precursors 5, 7, and 9. […] The critical micelle concentration (CMC) of 5 is 86.1 μM. […] The CMC of 6 is 8.1 μM. Unlike the case of 5, dephosphorylation of 7 or 9 at 400 μM by ALP (0.5 U/mL) produces nanofibers with the diameters of 6±2 nm or 9±2 nm, whose CMC is 87.4 μM or 25.8 μM, respectively.
A key requirement for selectively eliminating iPSCs by EISA is that the L-peptide nanoribbons only form on and in iPSCs, which overexpress ALP, but not on and in the differentiated cells that express normal level of ALP. That is, L-peptide nanoribbons should only rapidly form at high level of ALP, but not at normal level of ALP. […] Thus, after assessing the level of ALP expression in iPSCs, it should be possible to optimizing the initial concentration of a peptide and the time of dephosphorylation, to promote EISA that selectively targets iPSCs.

[2] = Degradation in HS-5 cell lysate (LC-MS)
[3] = Critical micelle concentration (CMC) measurement with pyrene probe; assay type: physicochemical; settings: for CMC of the nanofiber-forming product of dephosphorylation: product after dephosphorylation at 400 μM by ALP (0.5 U/mL)
Method: Critical Micelle Concentration ((MC) Measurement: The CMCs were determined using pyrene as the fluorescent probe. Different concentrations of compounds were prepared in pyrene-saturate solutions. The fluorescence spectra of pyrene solutions with different concentration compounds were obtained. The intensity ratio of 378 nm/393 nm (I378/I393) was determined by a Synergy H1 hybrid multi-mode microplate reader. Plot I378/I393 against the concentrations of compounds. The concentration at the turning point is the CMC.

[4] = tested on: iPSCs; assay: CLSM imaging of peptide assemblies in iPSCs; assay type: cell-based, human; settings: 400 μM, 2 hours
Method: Confocal Laser Scanning Microscopy (CLSM) Imaging: For live cell imaging, cells in exponential growth phase were seeded in a confocal dish (3.5 cm) at 1.0×10^5 cells per dish and then incubated in incubator for 24 h. We removed culture medium, and added fresh medium containing precursors for different time points. After removing the medium and washing the cells with live cell imaging solution (2 mL×2), the cells were used for CLSM imaging. For time-dependent live cell imaging, cells in exponential growth phase were seeded in a confocal dish (3.5 cm) at 1.0×10^5 cells per dish and then incubated in incubator for 24 h. After removing culture medium, we treated the cells with 1 mL of Hoechst 33342 (1 μg mL^−1) for 10 minutes. After being washed with culture medium (2 mL×2), the cells were incubated with fresh medium containing precursor 5 in a Tokai Hit stage top incubator (STXF-WSKMX-SET) to be used for CLSM imaging. All the CLSM images were obtained using Zeiss LSM 880 confocal microscopy at the lens of 63× with oil. The lasers used are 405 nm and 488 nm.
Because the fluorescence of NBD increases drastically from unassembled to assembled state, confocal laser scanning microscopy (CLSM) was suitable to reveal the cellular location of the peptide assemblies formed after dephosphorylation catalyzed by ALP. […] The blackness in nuclei overlaps well with the strong fluorescence. […] The results confirms that the nucleus-targeting mainly originates from the ALP catalyzed dephosphorylation.
To trace the dynamics of the formation and distribution of 5 inside iPSC cells, time-lapse CLSM was also used to image the changes of the fluorescence in the iPSCs incubated by 5 (400 μM). Using one cell as a representative case, after 6 minutes incubation fluorescent puncta appear on the membrane, likely originating from the aggregates of assemblies of 5 and those of 6 generated by the dephosphorylation catalyzed by ALP. […] After 24 minutes incubation, fluorescence starts to grow in the cytoplasm. Considering the LLLLY motif in SEQ ID NO: 2 constitutes the transmembrane domains of 18 human membrane proteins, it is possible that the affinity of 5 or 6 to membrane allows the assemblies of the mixture of 5 and 6 to interact with cellular membranes, which then facilitates nuclear localization. At about 28 minutes of incubation, fluorescence appears in the nucleus. Moreover, the nuclei shrink after the assemblies emerge in the nuclei. In addition, the nuclei also show nuclear blebbing (Stephens et al., “Chromatin Histone Modifications and Rigidity Affect Nuclear Morphology Independent of Lamins,” Mol. Biol. Cell 29(2):220-233 (2018), which is hereby incorporated by reference in its entirety). The shrinkage of nuclei and nuclear blebbing likely associate with iPSC death. To further examine the dynamics of EISA-formed peptide assemblies in iPSCs over different time, the increase of fluorescence in two cells over 2 hours was monitored; their nuclei, A and B, are shown in FIG. 10A. […] The mean fluorescent intensity in Nucleus A starts to increase at 28 minutes and levels off after 110 minutes. For Nucleus B, the mean fluorescent intensity keeps increasing from 38 minutes. The increases of the fluorescence in the nuclei and nucleoli are synchronous. […] The assemblies inside the nuclei or near nuclear membrane induce nuclear blebbing and shrinkage of nuclei, which likely contributes to the cell death.

[5] = tested on: ALP; assay: Dephosphorylation rate measurement (LC-MS); settings: for conversion ratio to dephosphorylated peptide / half-life at 100 μM / half-life at 200 μM: 0.5 U/mL ALP; for conversion ratio to dephosphorylated peptide: after 5 h of incubation; for half-life at 400 μM / half-life at 100 μM / half-life at 200 μM: alkaline phosphatase (ALP) in PBS; for half-life at 100 μM / half-life at 200 μM: half-life of dephosphorylation
Method: The reaction mixtures were analyzed with LC-MS.
Thus, the conversion of the phosphopentapeptides to their corresponding peptides was examined over time.

[6] = tested on: iPSCs; assay: Cell viability of iPSCs (trypan blue); assay type: cell-based, human; settings: 400 μM, 2 h
Method: Cell Culture: Human induced pluripotent stem cell line A21 was generated from human normal dermal fibroblasts by using the StemRNA™-NM Reprogramming kit (Stemgent, Cat #00-0076). hiPSCs were routinely cultured and passaged on 6-well plates coated with 0.25 μg/cm^2 iMatrix-511 (Recombinant Laminin-511) (ReproCell) with NutriStem XF/FFTM medium (Biological Industries). HS-5 cell line and HEK293 cell line were purchased from American Type Culture Collection (ATCC, USA). HS-5 cells were cultured in Dulbecco's Modified Eagle Medium (DMEM) supplemented with 10% fetal bovine serum (FBS), 100 U/mL penicillin and 100 μg/mL streptomycin. HEK293 cells were cultured in Minimal Essential Medium (MEM) supplemented with 10% fetal bovine serum (FBS), 100 U/mL penicillin and 100 μg/mL streptomycin. All cells were maintained at 37° C. in a humidified atmosphere of 5% CO2.
Cell Viability of iPSC's: iPSCs were plated in 6-well plates and incubated for 24 to 48 hours, then media were replaced with fresh one (2 ml) supplemented with PBS (control) 5 (200 μM, 300 μM, and 400 μM), 7 (400 μM) or 9 (400 μM), and incubated for 2 hours. Media were removed and cells were rinsed with PBS once, fresh normal cultural media were added and incubated for 30 min. All cells were collected and stained with trypan blue, live cells were counted using Cellometer Auto 2000 (Nexcelom Bioscience). Data were obtained by from three independent wells (n=3).

| Compound | self-assembling ability ([1]; formed from 3 upon dephosphorylation by ALP) | 6 remaining in HS-5 lysate ([2]; from 200 μM of 5, after 2 h of incubation) | 6 remaining in HS-5 lysate ([2]; from 200 μM of 5, after 4 hours incubation) | critical micelle concentration (CMC) [3] | NBD fluorescence in iPSCs (location of peptide assemblies) [4] | CMC of the nanofiber-forming product of dephosphorylation [3] | conversion ratio to dephosphorylated peptide [5] | half-life at 400 μM [5] | half-life at 100 μM [5] | half-life at 200 μM [5] | diameters of nanofibers [1] | cytotoxicity against the iPSCs [6] |
| --- | --- | --- | --- | --- | --- | --- | --- | --- | --- | --- | --- | --- |
| 4: de-phosphorylated form of 3: NBD-bAla-Leu-Leu-Leu-Tyr (SEQ ID NO: 1) ({NBD}-[βAla]LLLY) [compound 4] | limited self-assembling ability | – | – | – | – | – | – | – | – | – | – | – |
| CC(C)C[C@H](NC(=O)CCNc1ccc([N+](=O)[O-])c2nonc12)C(=O)N[C@@H](CC(C)C)C(=O)N[C@@H](CC(C)C)C(=O)N[C@@H](CC(C)C)C(=O)N[C@@H](Cc1ccc(O)cc1)C(=O)O [compound 6, NBD-βA-LLLLY] ({NBD-βAla}-LLLLY-OH) | – | about 20% | 6.01% | 8.1 µM | – | – | – | – | – | – | – | – |
| CC(C)C[C@H](NC(=O)[C@H](CC(C)C)NC(=O)[C@H](Cc1ccc(OP(=O)(O)O)cc1)NC(=O)[C@H](CC(C)C)NC(=O)[C@H](CC(C)C)NC(=O)CCNc1ccc([N+](=O)[O-])c2nonc12)C(=O)O [compound 7, NBD-βA-LLpYLL] ({NBD-βAla}-LL[pY]LL-OH) | – | – | – | 159.9 UM | no fluorescence inside the cells | 87.4 µM | 61.5% | 2.09 h | 2.12 h | 1.87 h | 6±2 nm | hardly exhibit cytotoxicity |
| CC(C)C[C@@H](NC(=O)CCNc1ccc([N+](=O)[O-])c2nonc12)C(=O)N[C@H](CC(C)C)C(=O)N[C@H](CC(C)C)C(=O)N[C@H](CC(C)C)C(=O)N[C@@H](Cc1ccc(OP(=O)(O)O)cc1)C(=O)O [compound 9, NBD-βA-llllpY] ({NBD-βAla}-[dL][dL][dL][dL][pY]-OH) | – | – | – | 146.8 µM | most of the cells exhibit no fluorescence inside the cells | 25.8 µM | 93.3% | 0.45 h | 0.41 h | 0.36 h | 9±2 nm | hardly exhibit cytotoxicity |
